IC50 data for 32 molecules are collected here from patent US11578061B2, “Inhibitors of LRRK2 kinase” (Halia Therapeutics, Inc., priority 2021, dated 2023).

The term IC50 denotes the concentration needed to halve the response being measured.

A value given as a limit tells only on which side of the number the result lay.

This experiment concerns the target recombinant human LRRK2 (catalytic domain only [amino acids 970-2527], GST-tagged) (Homo sapiens (Human), UniProt Q5S007). Kind of experiment: LRRK2 Enzymatic Assay. Type of experiment: biochemical. As to conditions: LRRKtide substrate, [32P]-ATP. An outline of the steps: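 GST-tagged catalytic domain (aa 970-2527) at 30 nM with 20 μM LRRKtide in HEPES pH 7.5/MgCl2 buffer, 1% DMSO; compounds (10 μM to 0.5 nM) preincubated 20 min, then [32P]-ATP added for 2 h at room temperature. P81 phosphocellulose capture; activity as % of vehicle, IC50 by curve fit.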

recombinant human LRRK2 (catalytic domain only [amino acids 970-2527], GST-tagged), sequence (Q5S007 970-2527): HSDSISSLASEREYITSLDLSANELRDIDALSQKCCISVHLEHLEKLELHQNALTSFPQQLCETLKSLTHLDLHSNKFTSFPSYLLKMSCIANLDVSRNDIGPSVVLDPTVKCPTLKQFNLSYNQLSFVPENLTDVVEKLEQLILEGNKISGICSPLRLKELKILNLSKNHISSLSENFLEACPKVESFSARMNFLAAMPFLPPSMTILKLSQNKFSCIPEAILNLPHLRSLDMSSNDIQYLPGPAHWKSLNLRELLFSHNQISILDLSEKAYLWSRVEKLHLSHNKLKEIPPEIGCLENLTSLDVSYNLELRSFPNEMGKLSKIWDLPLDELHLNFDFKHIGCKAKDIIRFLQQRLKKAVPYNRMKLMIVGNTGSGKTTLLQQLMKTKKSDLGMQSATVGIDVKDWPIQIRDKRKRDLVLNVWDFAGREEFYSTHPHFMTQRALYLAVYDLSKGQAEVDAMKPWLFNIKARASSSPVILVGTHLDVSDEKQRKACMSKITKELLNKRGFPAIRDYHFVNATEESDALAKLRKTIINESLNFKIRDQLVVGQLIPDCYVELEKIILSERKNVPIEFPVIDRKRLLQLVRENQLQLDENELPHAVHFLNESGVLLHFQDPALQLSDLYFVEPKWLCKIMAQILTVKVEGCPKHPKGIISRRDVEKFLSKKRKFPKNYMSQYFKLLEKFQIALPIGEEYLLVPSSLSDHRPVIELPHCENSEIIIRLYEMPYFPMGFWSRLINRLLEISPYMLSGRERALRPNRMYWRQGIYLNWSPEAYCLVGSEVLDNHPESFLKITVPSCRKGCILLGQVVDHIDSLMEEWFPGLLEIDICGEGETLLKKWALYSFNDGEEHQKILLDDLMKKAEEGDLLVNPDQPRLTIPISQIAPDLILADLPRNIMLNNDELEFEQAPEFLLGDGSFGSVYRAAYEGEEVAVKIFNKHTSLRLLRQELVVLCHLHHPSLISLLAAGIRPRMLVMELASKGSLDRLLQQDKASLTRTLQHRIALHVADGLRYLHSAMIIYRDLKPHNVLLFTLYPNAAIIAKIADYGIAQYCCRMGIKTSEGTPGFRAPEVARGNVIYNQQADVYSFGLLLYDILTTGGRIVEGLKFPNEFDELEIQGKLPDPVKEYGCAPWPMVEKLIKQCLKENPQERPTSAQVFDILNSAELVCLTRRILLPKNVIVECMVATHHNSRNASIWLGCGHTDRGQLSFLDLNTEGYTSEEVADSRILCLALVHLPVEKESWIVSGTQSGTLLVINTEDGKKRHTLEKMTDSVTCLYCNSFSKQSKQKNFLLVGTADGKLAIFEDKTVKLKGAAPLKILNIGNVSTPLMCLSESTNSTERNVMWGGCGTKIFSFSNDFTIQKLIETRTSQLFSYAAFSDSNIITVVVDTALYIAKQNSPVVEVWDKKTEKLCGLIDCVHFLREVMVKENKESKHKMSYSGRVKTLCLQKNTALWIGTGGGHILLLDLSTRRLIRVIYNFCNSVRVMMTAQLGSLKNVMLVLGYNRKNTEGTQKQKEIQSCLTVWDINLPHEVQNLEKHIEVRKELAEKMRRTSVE

For `OC1CCC(COc2ccnc(Nc3ccc(N4CCOCC4)cc3)n2)CC1` (centres unmarked) [Example 117, 4-(((2-((4-morpholinophenyl)amino)pyrimidin-4-yl)oxy)methyl)cyclohexanol], the IC50 lay within 200 to 400 nM. With `OC1(C(F)(F)F)CCC(COc2nc(Nc3ccc(N4CCOCC4)cc3)ncc2F)CC1` (centres unmarked) [Example 260, 4-(((5-fluoro-2-((4-morpholinophenyl)amino)pyrimidin-4-yl)oxy)methyl)-1-(trifluoromethyl)cyclohexan-1-ol] the figure was 50 to 200 nM; with `CN1CCC(F)(COc2nc(Nc3ccc(N4CCOCC4)cc3)ncc2F)CC1` [Example 64, 5-fluoro-4-((4-fluoro-1-methylpiperidin-4-yl)methoxy)-N-(4-morpholinophenyl)py-rimidin-2-amine], > 400 nM; with `CC(C)OC1CCC(COc2nc(Nc3ccc(N4C[C@@H](C)O[C@@H](C)C4)cc3)ncc2F)CC1` (mixture of isomers) [Example 279, N-(4-((2S,6R)-2,6-dimethylmorpholino)phenyl)-5-fluoro-4-((4-isopropoxycyclohexyl)methoxy)pyrimidin-2-amine], 200 to 400 nM. For `O[C@@H]1CC[C@H](COc2nc(Nc3ccc(N4CCOCC4)cc3)ncc2F)C[C@H]1F` [Example 258, (1R,2R,4S)-2-fluoro-4-(((5-fluoro-2-((4-morpholinophenyl)amino)pyrimidin-4-yl)oxy)methyl)cyclohexan-1-ol] the value was 50 to 200 nM; for `Cc1nn(C(C)(C)C#N)cc1Nc1nccc(OCC2(F)CCNCC2)n1` [Example 19, 2-(4-((4-((4-fluoropiperidin-4-yl)methoxy)pyrimidin-2-yl)amino)-3-methyl-1H-pyrazol-1-yl)-2-methylpropanenitrile], 200 to 400 nM. With `CCO[C@H]1CC[C@@H](COc2nc(Nc3ccc(N4C[C@@H](C)O[C@@H](C)C4)cc3)ncc2F)CC1` [Example 276, N-(4-((2S,6R)-2,6-dimethylmorpholino)phenyl)-4-(((1S,4S)-4-ethoxycyclohexyl)methoxy)-5-fluoropyrimidin-2-amine] the figure was 50 to 200 nM; with `C[C@@H]1CN(c2ccc(Nc3ncc(F)c(OCC4CCC(C)(O)CC4)n3)cc2)C[C@H](C)O1` (stereo partly drawn) [Example 252, 4-(((2-((4-((2S,6R)-2,6-dimethylmorpholino)phenyl)amino)-5-fluoropyrimidin-4-yl)oxy)methyl)-1-methylcyclohexan-1-ol], < 50 nM; with `Cc1nn(C(C)(C)C#N)cc1Nc1ncc(F)c(OCC2(F)CCN(C)CC2)n1` [Example 66, 2-(4-((5-fluoro-4-((4-fluoro-1-methylpiperidin-4-yl)methoxy)pyrimidin-2-yl)amino)-3-methyl-1H-pyrazol-1-yl)-2-methylpropanenitrile], > 400 nM. With `Clc1cnc(Nc2ccc(N3CCOCC3)cc2)nc1OCC1CCCCC1` [Example 147, 5-chloro-4-(cyclohexylmethoxy)-N-(4-morpholinophenyl)pyrimidin-2-amine], the 50% inhibitory concentration (IC50) is < 50 nM.

As to `FC(F)CN[C@H]1CC[C@H](COc2nc(Nc3cccc(N4CCOCC4)c3)ncc2Cl)CC1` [Example 107, 5-chloro-4-(((1R,4R)-4-((2,2-difluoro-ethyl)amino)cyclohexyl)methoxy)-N-(3-morpholino-phenyl) pyrimidin-2-amine], the IC50 was < 50 nM. For `CCO[C@H]1CC[C@@H](COc2nc(Nc3ccc(N4CCOCC4)cc3)ncc2F)CC1` [Example 275, 4-(((1S,4S)-4-ethoxycyclohexyl)methoxy)-5-fluoro-N-(4-morpholinophenyl)pyrimidin-2-amine] the value was 50 to 200 nM; for `FC(F)CN[C@H]1CC[C@H](COc2ccnc(Nc3ccc(N4CCOCC4)cc3)n2)CC1` [Example 103, 4-(((1R,4R)-4-((2,2-difluoro-ethyl)amino)cyclohexyl)methoxy)-N-(4-morpholino-phenyl) pyrimidin-2-amine], < 50 nM; for `CC(C)n1cc(Nc2ncc(F)c(OCC34CCC(O)(CC3)CC4)n2)cn1` [Example 256, 4-(((5-fluoro-2-((1-isopropyl-1H-pyrazol-4-yl)amino)pyrimidin-4-yl)oxy)methyl)bicyclo[2.2.2]octan-1-ol], < 50 nM.

On to `Cc1nn(C(F)F)cc1Nc1ncc(F)c(OC[C@H]2CC[C@H](O)CC2)n1` [Example 232, (1R,4R)-4-(((2-((1-(difluoromethyl)-3-methyl-1H-pyrazol-4-yl)amino)-5-fluoropyrimidin-4-yl)oxy)methyl)cyclohexan-1-ol], for which the IC50 is 50 to 200 nM.

Take `COc1cnc(Nc2ccc(N3CCOCC3)cc2)nc1OC[C@H]1CC[C@H](CN)CC1` [Example 13, 4-(((1R,4R)-4-(aminomethyl)cyclohexyl)methoxy)-5-methoxy-N-(4-morpholinophenyl) pyrimidin-2-amine]: the IC50 was < 50 nM.

Turning to `CC(C)(O)[C@H]1CC[C@H](COc2ccnc(Nc3ccc(N4CCOCC4)cc3)n2)CC1` [Example 136, 2-((1R,4R)-4-(((2-((4-morpholinophenyl)amino)pyrimidin-4-yl)oxy)methyl)cyclohexyl)propan-2-ol], the IC50 lay in the range of 50 to 200 nM. Take `Cc1nn(C(C)(C)C#N)cc1Nc1ncc(F)c(OC[C@H]2CC[C@H](OC(F)F)CC2)n1` [Example 286, 2-(4-((4-(((1R,4R)-4-(difluoromethoxy)cyclohexyl)methoxy)-5-fluoropyrimidin-2-yl)amino)-3-methyl-1H-pyrazol-1-yl)-2-methylpropanenitrile]: the IC50 was 50 to 200 nM. Regarding `COc1nn(C2CC2)cc1Nc1ncc(F)c(OC[C@H]2CC[C@H](O)CC2)n1` [Example 245, (1R,4R)-4-(((2-((1-cyclopropyl-3-methoxy-1H-pyrazol-4-yl)amino)-5-fluoropyrimidin-4-yl)oxy)methyl)cyclohexan-1-ol], the IC50 was in the range of 200 to 400 nM. For `CC(=O)N[C@H]1CC[C@H](COc2nc(Nc3ccc(N4CCOCC4)cc3)ncc2F)CC1` [Example 82, N-((1R,4R)-4-(((5-fluoro-2-((4-morpholinophenyl)amino)pyrimidin-4-yl)oxy)methyl)cyclo-hexyl)acetamide] the value was < 50 nM. As to `Cc1nn(C(C)(C)C#N)cc1Nc1ncc(Cl)c(OC[C@H]2CC[C@H](C(C)(C)O)CC2)n1` [Example 138, 2-(4-((5-chloro-4-(((1R,4R)-4-(2-hydroxypropan-2-yl)cyclohexyl)methoxy)pyrimidin-2-yl)amino)-3-methyl-1H-pyrazol-1-yl)-2-methylpropanenitrile], the IC50 was < 50 nM. `O[C@H]1CC[C@H](COc2nc(Nc3cnn(CC(F)(F)F)c3)ncc2F)CC1` [Example 223, (1R,4R)-4-(((5-fluoro-2-((1-(2,2,2-trifluoroethyl)-1H-pyrazol-4-yl)amino)pyrimidin-4-yl)oxy)methyl)cyclohexan-1-ol]: the IC50 lay in the range of 50 to 200 nM. For `Cc1nn(C2CC(C#N)C2)cc1Nc1ncc(Cl)c(OCC2(F)CCN(C)CC2)n1` (centres unmarked) [Example 62, 3-(4-((5-chloro-4-((4-fluoro-1-methylpiperidin-4-yl)methoxy)pyrimidin-2-yl)amino)-3-methyl-1H-pyrazol-1-yl)cyclobutane-1-carbonitrile] the value was 200 to 400 nM; for `O[C@H]1CC[C@H](COc2nc(Nc3ccc(N4CC5(CCOC5)C4)cc3)ncc2F)CC1` [Example 215, (1R,4R)-4-(((2-((4-(6-oxa-2-azaspiro[3.4]octan-2-yl)phenyl)amino)-5-fluoropyrimidin-4-yl)oxy)methyl)cyclohexan-1-ol], < 50 nM. For `CC(=O)NC1CCCC(COc2nc(Nc3ccc(N4CCOCC4)cc3)ncc2F)CC1` (centres unmarked) [Example 85, N-(4-(((5-fluoro-2-((4-morpholinophenyl)amino)pyrimidin-4-yl)oxy)methyl)cyclo-heptyl)acetamide], the half-maximal inhibitory concentration (IC50) was < 50 nM. Take `Cc1c(Nc2ncc(Cl)c(OCC3CC(F)(F)C3)n2)cnn1C1CC(C#N)C1` (centres unmarked) [Example 159, 3-(4-((5-chloro-4-((3,3-difluorocyclobutyl)methoxy)pyrimidin-2-yl)amino)-5-methyl-1H-pyrazol-1-yl)cyclobutane-1-carbonitrile]: the IC50 was < 50 nM. For `CC(=O)N1CCC(COc2nc(Nc3ccc(N4C[C@@H](C)O[C@@H](C)C4)cc3)ncc2F)C(F)C1` (single isomer, unassigned) [Example 175] the value was 200 to 400 nM. On to `CC(=O)N[C@H]1CC[C@H](COc2nc(Nc3cn(C(F)F)nc3C)ncc2F)CC1` [Example 197, N-((1R,4R)-4-(((2-((1-(difluoromethyl)-3-methyl-1H-pyrazol-4-yl)amino)-5-fluoropyrimidin-4-yl)oxy)methyl)cyclo-hexyl)acetamide], for which the IC50 fell in the range of 50 to 200 nM. With `N[C@H]1CC[C@H](COc2nc(Nc3ccc(N4CCOCC4)cc3)ncc2Cl)CC1` [Example 9, 4-(((1R,4R)-4-aminocyclohexyl)methoxy)-5-chloro-N-(4-morpholinophenyl) pyrimidin-2-amine] the figure was < 50 nM; with `Cc1nn(C(C)(C)C#N)cc1Nc1ncc(Cl)c(OCC2CNC2)n1` [Example 27, 2-(4-((4-(azetidin-3-ylmethoxy)-5-chloropyrimidin-2-yl)amino)-3-methyl-1H-pyrazol-1-yl)-2-methylpropanenitrile], > 400 nM.

`CC(=O)N[C@H]1CC[C@H](COc2ccnc(Nc3ccc(N4C[C@@H](C)O[C@@H](C)C4)cc3)n2)CC1` [Example 73, N-((1R,4R)-4-(((2-((4-((2R,6S)-2,6-dimethylmorpholino)phenyl)amino)pyrimidin-4-yl)oxy)methyl)cyclo-hexyl)acetamide]: the IC50 was in the range of 50 to 200 nM. With `Cc1nn(C(C)(C)C#N)cc1Nc1ncc(F)c(OCC2CCNCC2F)n1` (single isomer, unassigned) [Example 171, 2-(4-((5-fluoro-4-((3-fluoropiperidin-4-yl)methoxy)pyrimidin-2-yl)amino)-3-methyl-1H-pyrazol-1-yl)-2-methylpropanenitrile] the figure was 200 to 400 nM.
